Assay results from the supplement of paper PMC8253809.

Columns and labels:
[1] = tested on: HABS (astrocyte control); experiment: area under dose-response curve of % growth inhibition (log2 RLU vs DMSO / staurosporine), 1e-11 to 1e-4 M (% x log10 M); higher = more growth inhibition
In short: (§1)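 Area under the curve was derived with the trapezoid rule from a fitted log-logistic curve, switching to a smoothing spline if the sigmoid fit failed. It rested on per-plate % activity between solvent and positive controls, calculated from log2-transformed CellTiter-Glo luminescence after 7 days of exposure (3 days for iAstro) at 37 °C, 5% CO2. Patient-derived pHGG/DIPG lines and astrocytes on 1% Geltrex-coated 384-well plates received a 10-point threefold dilution series, mean top concentration 35 μM, in triplicate.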

[2] = tested on: HGGX42 (H3.3 G34R paediatric high-grade glioma line); experiment: as above
In short: as §1

[3] = tested on: iAstro (astrocyte control); experiment: as above
In short: as §1

[4] = tested on: DIPGX29 (H3.3 K27M diffuse intrinsic pontine glioma line); experiment: as above
In short: as §1

[5] = tested on: DIPGX9 (diffuse intrinsic pontine glioma line); experiment: as above
In short: as §1

[6] = tested on: SUDIPGIV (diffuse intrinsic pontine glioma line); experiment: as above
In short: as §1

[7] = tested on: SUDIPGXIX (diffuse intrinsic pontine glioma line); experiment: as above
In short: as §1

[8] = tested on: SUDIPGXIII (diffuse intrinsic pontine glioma line); experiment: as above
In short: as §1

[9] = tested on: HGGX39 (paediatric high-grade glioma line); experiment: as above
In short: as §1

[10] = tested on: HGGX6 (H3.3 G34R paediatric high-grade glioma line); experiment: as above
In short: as §1

[11] = tested on: DIPGX37 (H3.3 K27M diffuse intrinsic pontine glioma line); experiment: as above
In short: as §1

[12] = tested on: SUDIPGVI (diffuse intrinsic pontine glioma line); experiment: as above
In short: as §1

[13] = tested on: DIPGX7 (H3.3 K27M diffuse intrinsic pontine glioma line); experiment: as above
In short: as §1

[14] = tested on: SUDIPGXVII (diffuse intrinsic pontine glioma line); experiment: as above
In short: as §1

[15] = tested on: HGGX2 (paediatric high-grade glioma line); experiment: as above
In short: as §1

[16] = tested on: SUDIPGXXI (diffuse intrinsic pontine glioma line); experiment: as above
In short: as §1

[17] = tested on: HGGX42; experiment: maximal growth inhibition (yFin) relative to DMSO / staurosporine; higher = more efficacious
In short: (§2)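 Compounds were delivered by pin tool as a 10-point threefold dilution series with a mean top concentration of 35 μM, in triplicate, to patient-derived pHGG/DIPG cell lines and astrocyte controls growing on 1% Geltrex-coated 384-well plates. Incubation lasted 7 days, or 3 days for iAstro, at 37 °C with 5% CO2. EC50 and maximal response (yFin) come from the three- or four-parameter log-logistic fit with the lowest AICc, applied to pooled, log2-transformed CellTiter-Glo luminescence normalised per plate to % activity between solvent (negative) and positive control wells.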

[18] = tested on: DIPGX29; experiment: as above
In short: as §2

[19] = tested on: SUDIPGIV; experiment: as above
In short: as §2

[20] = tested on: HGGX39; experiment: as above
In short: as §2

[21] = tested on: HGGX6; experiment: as above
In short: as §2

[22] = tested on: DIPGX37; experiment: as above
In short: as §2

[23] = tested on: DIPGX7; experiment: as above
In short: as §2

[24] = tested on: SUDIPGXXI; experiment: as above
In short: as §2

[25] = tested on: HGGX42; experiment: EC50 (inflection of fitted growth-inhibition curve) (log10 M)
In short: as §2

[26] = tested on: DIPGX29; experiment: as above
In short: as §2

[27] = tested on: SUDIPGIV; experiment: as above
In short: as §2

[28] = tested on: HGGX39; experiment: as above
In short: as §2

[29] = tested on: HGGX6; experiment: as above
In short: as §2

[30] = tested on: DIPGX37; experiment: as above
In short: as §2

[31] = tested on: DIPGX7; experiment: as above
In short: as §2

[32] = tested on: SUDIPGXXI; experiment: as above
In short: as §2

[33] = tested on: iAstro; experiment: maximal growth inhibition (yFin) relative to DMSO / staurosporine; higher = more efficacious
In short: as §2

[34] = tested on: DIPGX9; experiment: as above
In short: as §2

[35] = tested on: SUDIPGXIX; experiment: as above
In short: as §2

[36] = tested on: HGGX2; experiment: as above
In short: as §2

[37] = tested on: iAstro; experiment: EC50 (inflection of fitted growth-inhibition curve) (log10 M)
In short: as §2

[38] = tested on: DIPGX9; experiment: as above
In short: as §2

[39] = tested on: SUDIPGXIX; experiment: as above
In short: as §2

[40] = tested on: HGGX2; experiment: as above
In short: as §2

[41] = tested on: HABS; experiment: maximal growth inhibition (yFin) relative to DMSO / staurosporine; higher = more efficacious
In short: as §2

[42] = tested on: SUDIPGXVII; experiment: as above
In short: as §2

[43] = tested on: HABS; experiment: EC50 (inflection of fitted growth-inhibition curve) (log10 M)
In short: as §2

[44] = tested on: SUDIPGXVII; experiment: as above
In short: as §2

## CC(C(O)c1ccc(O)cc1)N1CCC(Cc2ccccc2)CC1 (stereo unspecified) [IFENPRODIL]
[1]
  area under dose-response curve: 0.152
[2]
  area under dose-response curve: 66.8
[3]
  area under dose-response curve: 13.3
[4]
  area under dose-response curve: 39.3
[5]
  area under dose-response curve: 18.8
[6]
  area under dose-response curve: 29.8
[7]
  area under dose-response curve: 3.16
[8]
  area under dose-response curve: 27.3
[9]
  area under dose-response curve: 44.1
[10]
  area under dose-response curve: 25.9
[11]
  area under dose-response curve: 48.4
[12]
  area under dose-response curve: 18.5
[13]
  area under dose-response curve: 57.3
[14]
  area under dose-response curve: 17.3
[15]
  area under dose-response curve: 8.88
[16]
  area under dose-response curve: 85.1
[17]
  maximal growth inhibition: 61.8%
[18]
  maximal growth inhibition: 29.5%
[19]
  maximal growth inhibition: 45.1%
[20]
  maximal growth inhibition: 36.6%
[21]
  maximal growth inhibition: 20.6%
[22]
  maximal growth inhibition: 59.3%
[23]
  maximal growth inhibition: 45.7%
[24]
  maximal growth inhibition: 75.3%
[25]
  EC50 (log10 M): -5.06
[26]
  EC50 (log10 M): -4.85
[27]
  EC50 (log10 M): -4.66
[28]
  EC50 (log10 M): -4.86
[29]
  EC50 (log10 M): -4.95
[30]
  EC50 (log10 M): -4.82
[31]
  EC50 (log10 M): -4.83
[32]
  EC50 (log10 M): -4.85

## CC(C)N(CCCNC(=O)Nc1ccc(C(C)(C)C)cc1)C[C@H]1O[C@@H](n2cc(Br)c3c(N)ncnc32)[C@H](O)[C@@H]1O [SGC0946]
[1]
  area under dose-response curve: 8.16
[2]
  area under dose-response curve: 66.7
[3]
  area under dose-response curve: 21.5
[4]
  area under dose-response curve: 58.4
[5]
  area under dose-response curve: 24.1
[6]
  area under dose-response curve: 11.6
[7]
  area under dose-response curve: 57.8
[8]
  area under dose-response curve: 40.5
[9]
  area under dose-response curve: 14.8
[10]
  area under dose-response curve: 33.2
[11]
  area under dose-response curve: 56.4
[12]
  area under dose-response curve: 20
[13]
  area under dose-response curve: 54
[14]
  area under dose-response curve: 27.7
[15]
  area under dose-response curve: 58.5
[16]
  area under dose-response curve: 82.6
[17]
  maximal growth inhibition: 102%
[33]
  maximal growth inhibition: 25.3%
[18]
  maximal growth inhibition: 100%
[34]
  maximal growth inhibition: 30.4%
[35]
  maximal growth inhibition: 107%
[21]
  maximal growth inhibition: 43%
[22]
  maximal growth inhibition: 65.1%
[23]
  maximal growth inhibition: 35.5%
[36]
  maximal growth inhibition: 100%
[24]
  maximal growth inhibition: 107%
[25]
  EC50 (log10 M): -4.53
[37]
  EC50 (log10 M): -4.87
[26]
  EC50 (log10 M): -4.49
[38]
  EC50 (log10 M): -4.79
[39]
  EC50 (log10 M): -4.54
[29]
  EC50 (log10 M): -4.77
[30]
  EC50 (log10 M): -4.52
[31]
  EC50 (log10 M): -4.86
[40]
  EC50 (log10 M): -4.58
[32]
  EC50 (log10 M): -4.77

## CO[C@H]1C[C@@H]2CC[C@@H](C)[C@@](O)(O2)C(=O)C(=O)N2CCCC[C@H]2C(=O)O[C@H]([C@H](C)C[C@@H]2CC[C@@H](OC(=O)C(C)(CO)CO)[C@H](OC)C2)CC(=O)[C@H](C)/C=C(\C)[C@@H](O)[C@@H](OC)C(=O)[C@H](C)C[C@H](C)/C=C/C=C/C=C/1C [TEMSIROLIMUS]
[1]
  area under dose-response curve: 88.3
[2]
  area under dose-response curve: 121
[3]
  area under dose-response curve: 101
[4]
  area under dose-response curve: 113
[5]
  area under dose-response curve: 198
[6]
  area under dose-response curve: 83.2
[7]
  area under dose-response curve: 116
[8]
  area under dose-response curve: 53.9
[9]
  area under dose-response curve: 91.8
[10]
  area under dose-response curve: 77.9
[11]
  area under dose-response curve: 123
[12]
  area under dose-response curve: 89
[13]
  area under dose-response curve: 71
[14]
  area under dose-response curve: 40.1
[15]
  area under dose-response curve: 86.5
[16]
  area under dose-response curve: 201
[41]
  maximal growth inhibition: 104%
[33]
  maximal growth inhibition: 94.3%
[18]
  maximal growth inhibition: 116%
[35]
  maximal growth inhibition: 96.2%
[21]
  maximal growth inhibition: 58%
[22]
  maximal growth inhibition: 89.6%
[23]
  maximal growth inhibition: 63.7%
[42]
  maximal growth inhibition: 24.2%
[36]
  maximal growth inhibition: 77.4%
[24]
  maximal growth inhibition: 124%
[43]
  EC50 (log10 M): -4.85
[37]
  EC50 (log10 M): -4.98
[26]
  EC50 (log10 M): -4.69
[39]
  EC50 (log10 M): -4.89
[29]
  EC50 (log10 M): -4.79
[30]
  EC50 (log10 M): -4.85
[31]
  EC50 (log10 M): -4.94
[44]
  EC50 (log10 M): -4.96
[40]
  EC50 (log10 M): -4.9
[32]
  EC50 (log10 M): -5.31

## NC(=O)Nc1sc(-c2ccc(F)cc2)cc1C(N)=O [TPCA-1]
[1]
  area under dose-response curve: 32.4
[2]
  area under dose-response curve: 30.8
[3]
  area under dose-response curve: 18.2
[4]
  area under dose-response curve: 26.8
[5]
  area under dose-response curve: 29.4
[6]
  area under dose-response curve: 12
[7]
  area under dose-response curve: 39.2
[8]
  area under dose-response curve: 3.37
[9]
  area under dose-response curve: 21.9
[10]
  area under dose-response curve: 26.9
[11]
  area under dose-response curve: 30.6
[12]
  area under dose-response curve: 6.26
[13]
  area under dose-response curve: 11.3
[14]
  area under dose-response curve: 15.2
[15]
  area under dose-response curve: 23.3
[16]
  area under dose-response curve: 99.3
[41]
  maximal growth inhibition: 33.8%
[17]
  maximal growth inhibition: 24.8%
[33]
  maximal growth inhibition: 24.4%
[18]
  maximal growth inhibition: 35.9%
[34]
  maximal growth inhibition: 36.9%
[19]
  maximal growth inhibition: 21.9%
[35]
  maximal growth inhibition: 58.5%
[20]
  maximal growth inhibition: 27.7%
[21]
  maximal growth inhibition: 22.5%
[22]
  maximal growth inhibition: 38.5%
[42]
  maximal growth inhibition: 20.7%
[36]
  maximal growth inhibition: 36.3%
[24]
  maximal growth inhibition: 122%
[43]
  EC50 (log10 M): -4.95
[25]
  EC50 (log10 M): -5.23
[37]
  EC50 (log10 M): -4.76
[26]
  EC50 (log10 M): -4.75
[38]
  EC50 (log10 M): -4.8
[27]
  EC50 (log10 M): -4.55
[39]
  EC50 (log10 M): -4.66
[28]
  EC50 (log10 M): -4.79
[29]
  EC50 (log10 M): -5.19
[30]
  EC50 (log10 M): -4.8
[44]
  EC50 (log10 M): -4.74
[40]
  EC50 (log10 M): -4.67
[32]
  EC50 (log10 M): -4.81
